In patent publication US9169217B2, “Arylalkyl esters of 4-amino-6-(substituted phenyl)-picolinates and 6-amino-2-(substituted phenyl)-pyrimidinecarboxylates and their use as selective herbicides for crops” (Dow AgroSciences LLC, priority 2011, dated 2015) one finds pest or weed control and melting point data, which are given here for 17 compounds.

The subject of series [1] is Cyperus difformis L. (small-flower flatsedge). The series can be described thus: Postemergence foliar-applied herbicidal activity in direct seeded rice (Example 16). The class given is in vivo. To be noted: post-emergence, 504 h, rice cropping systems, foliar-applied, 8.75 g ae/ha, 21 DAA, may represent multiple trials, read-out: Visual Injury (%) CYPDI. The text has this:
(§1) Seeds or nutlets of the desired test plant species were planted in a soil matrix prepared by mixing a loam soil (43 percent silt, 19 percent clay, and 38 percent sand, with a pH of about 8.1 and an organic matter content of about 1.5 percent) and river sand in an 80 to 20 ratio. The soil matrix was contained in plastic pots with a surface area of 139.7 cm^2. When required to ensure good germination and healthy plants, a fungicide treatment and/or other chemical or physical treatment was applied. The plants were grown for 10-17 d in a greenhouse with an approximate 14-h photoperiod which was maintained at about 29° C. during the day and 26° C. during the night. Nutrients and water were added on a regular basis and supplemental lighting was provided with overhead metal halide 1000-Watt lamps as necessary. The plants were employed for testing when they reached the second or third true leaf stage.
(§2) Treatments consisted of esters of compounds 1-4, 6-8, 10, 11, 13-16, 20-31, 35, 38, 41 and 42 and A-E. Compound A is methyl 4-amino-3-chloro-6-(4-chloro-3-ethoxy-2-fluorophenyl)-5-fluoropicolinate; compound B is methyl 4-amino-3-chloro-6-(4-cyclopropylphenyl)-5-fluoropicolinate; compound C is methyl 4-amino-3-chloro-6-(2,4-dichloro-3-methoxyphenyl)picolinate; compound D is methyl 6-amino-2-(4-chloro-2-fluoro-3-methoxyphenyl)-5-vinylpyrimidine-4-carboxylate; and compound E is methyl 4-amino-3-chloro-6-(4-chloro-2-fluoro-3-methoxyphenyl)-5-fluoropicolinate. Weighed amounts of technical grade compounds were placed in 25 mL glass vials and dissolved in a volume of 97:3 v/v acetone-DMSO to obtain 12× stock solutions. […] The concentrated stock solutions were added to the spray solutions so that the final acetone and DMSO concentrations were 16.2% and 0.5%, respectively. Spray solutions were diluted to the appropriate final concentrations with the addition of 10 mL of an aqueous mixture of 1.5% (v/v) Agri-dex crop oil concentrate. Generally, multiple concentrations of spray solutions were formulated and tested utilizing the same stock solution. The final spray solutions contained 1.25% (v/v) Agri-dex crop oil concentrate. Compound requirements are based upon a 12 mL application volume at a rate of 187 L/ha. Spray solutions were applied to the plant material with an overhead Mandel track sprayer equipped with 8002E nozzles calibrated to deliver 187 L/ha over an application area of 0.503 square meters (m^2) at a spray height of 18 inches (43 cm) above average plant canopy height. Control plants were sprayed in the same manner with the solvent blank.
(§3) The treated plants and control plants were placed in a greenhouse as described above and watered by sub-irrigation to prevent wash-off of the test compounds. After 3 weeks, the condition of the test plants, compared with that of the untreated plants, was determined visually and scored on a scale of 0 to 100 percent where 0 corresponds to no injury and 100 corresponds to complete kill.
(§4) By applying the well-accepted probit analysis as described by J. Berkson in Journal of the American Statistical […], 48, 565 (1953) and by D. Finney in “Probit Analysis” Cambridge University Press (1952), the data gathered can be used to calculate GR50 and GR80 values, which are defined as growth reduction factors that correspond to the effective dose of herbicide required to kill or control 50 percent or 80 percent, respectively, of a target plant.

Series [2] has as its system Scirpus juncoides ROXB. (Japanese bulrush). Described as above. In kind it is in vivo. To be noted: Schoenoplectiella juncoides, post-emergence, 504 h; rice cropping systems, foliar-applied, 8.75 g ae/ha, 21 DAA; may represent multiple trials; read-out: Visual Injury (%) SCPJU.
Source text: as §1, §2, §3, §4

In series [3] the test system is Echinochloa crus-galli (L.) P.BEAUV. (barnyardgrass). Kind of series: In-water applied herbicidal activity in transplanted paddy rice (Example 17). In kind it is in vivo. To be noted: Echinochloa crus-galli, 504 h, rice cropping systems, in-water applied (paddy), 21 DAA, may represent multiple trials, read-out: Visual Injury (%) ECHCG; for pest or weed control at 17.5 g/ha: 17.5 g ae/ha; for pest or weed control at 35 g/ha: 35 g ae/ha. The method, then: (§5) Weed seeds or nutlets of the desired test plant species were planted in puddled soil (mud) prepared by mixing a non-sterilized mineral soil (28 percent silt, 18 percent clay, and 54 percent sand, with a pH of about 7.3 to 7.8 and an organic matter content of about 1.0 percent) and water at a ratio of 100 kilograms (kg) of soil to 19 liters (L) of water. The prepared mud was dispensed in 250 mL aliquots into 480 mL non-perforated plastic pots with a surface area of 91.6 cm^2 leaving a headspace of 3 cm in each pot. Rice seeds were planted in Sun Gro MetroMix 306 planting mixture, which typically has a pH of 6.0 to 6.8 and an organic matter content of about 30 percent, in plastic plug trays. Seedlings at the second or third leaf stage of growth were transplanted into 650 mL of mud contained in 960 mL non-perforated plastic pots with a surface area of 91.6 cm^2 four days prior to herbicide application. The paddy was created by filling the 3 cm headspace of the pots with water. When required to ensure good germination and healthy plants, a fungicide treatment and/or other chemical or physical treatment was applied. The plants were grown for 4-14 d in a greenhouse with an approximate 14-h photoperiod which was maintained at about 29° C. during the day and 26° C. during the night. Nutrients were added as Osmocote (17:6:10, Nitrogen:Phosphorus:Potassium (N:P:K)+minor nutrients) at 2 grams (g) per cup. Water was added on a regular basis to maintain the paddy flood, and supplemental lighting was provided with overhead metal halide 1000-Watt lamps as necessary. The plants were employed for testing when they reached the second or third true leaf stage.
(§6) Treatments consisted of esters of compounds 1-4, 6-33, 35-39, 41 and 42 and A-G. Compound A is methyl 4-amino-3-chloro-6-(4-chloro-3-ethoxy-2-fluorophenyl)-5-fluoropicolinate; compound B is methyl 4-amino-3-chloro-6-(4-cyclopropylphenyl)-5-fluoropicolinate; compound C is methyl 4-amino-3-chloro-6-(2,4-dichloro-3-methoxyphenyl)picolinate; compound D is methyl 6-amino-2-(4-chloro-2-fluoro-3-methoxyphenyl)-5-vinylpyrimidine-4-carboxylate; compound E is methyl 4-amino-3-chloro-6-(4-chloro-2-fluoro-3-methoxyphenyl)-5-fluoropicolinate; compound F is methyl 6-amino-2-(4-chloro-2-fluoro-3-methoxyphenyl)-5-methoxypyrimidine-4-carboxylate; and compound G is methyl 4-amino-3-chloro-6-(4-chloro-2-fluoro-3-methoxyphenyl)picolinate. Weighed amounts of technical grade compounds were placed in individual 120 mL glass vials and were dissolved in 20 mL of acetone to obtain concentrated stock solutions. […] The concentrated stock solutions obtained were diluted with 20 mL of an aqueous mixture containing 2.5% Agri-dex crop oil concentrate (v/v). The final application solutions contained 1.25% (v/v) Agri-dex crop oil concentrate. Generally, multiple concentrations were tested utilizing the same stock solution. Applications were made by injecting an appropriate amount of the application solution into the aqueous layer of the paddy. Control plants were treated in the same manner with the solvent blank.
(§7) The treated plants and control plants were placed in a greenhouse as described above and water was added as needed to maintain a paddy flood. After 3 weeks the condition of the test plants, compared with that of the untreated plants, was determined visually and scored on a scale of 0 to 100 percent where 0 corresponds to no injury and 100 corresponds to complete kill.
as §4

Series [4] relates to Scirpus juncoides ROXB. (Japanese bulrush). The description is as above. To be noted: Schoenoplectiella juncoides, 504 h; rice cropping systems, in-water applied (paddy), 17.5 g ae/ha, 21 DAA; may represent multiple trials; read-out: Visual Injury (%) SCPJU. In kind it is in vivo. The method, then:
as §5, §6, §7, §4

For orientation: melting point means the temperature, or range, at which the solid turns liquid. The compound `COC(=O)c1cccc(COC(=O)c2nc(-c3ccc(Cl)c(OC)c3F)c(F)c(N)c2Cl)c1` [Compound 29] showed a melting point of 144 to 145 °C. In addition, the pest or weed control at 8.75 g/ha in series [1] was 100%. Besides, the pest or weed control at 8.75 g/ha in series [2] was 100%. In addition, the pest or weed control at 17.5 g/ha in series [3] was determined as 10%. Also, the pest or weed control at 17.5 g/ha in series [4] was found to be 60%.

In turn, `COc1c(Cl)ccc(-c2nc(C(=O)OCCc3ccccc3)c(Cl)c(N)c2F)c1F` [Compound 15] registered a melting point of 84 to 85 °C. Moreover, the pest or weed control at 8.75 g/ha in series [1] was 100%. In series [2], the pest or weed control at 8.75 g/ha is 90%. The pest or weed control at 17.5 g/ha in series [3] amounted to 30%. In series [4], the pest or weed control at 17.5 g/ha came out at 70%.

As to `COc1c(Cl)ccc(-c2nc(C(=O)OCc3ccc(OC(F)(F)F)cc3)c(Cl)c(N)c2F)c1F` [Compound 20, 4-trifluoromethoxybenzyl 4-amino-3-chloro-6-(4-chloro-2-fluoro-3-methoxyphenyl)-5-fluoropicolinate], the pest or weed control at 8.75 g/ha in series [1] and in series [2] was 100% each time. Also, the values for the pest or weed control at 17.5 g/ha in series [3] and in series [4] were 50% and 0%, respectively.

Regarding `COc1c(Cl)ccc(-c2nc(C(=O)OCc3ccc([N+](=O)[O-])cc3)c(Cl)c(N)c2F)c1F` [Compound 21], the melting point is 207 to 208 °C. Moreover, the pest or weed control at 8.75 g/ha in series [1] was determined as 100%. The pest or weed control at 8.75 g/ha in series [2] stood at 100%. Also, in series [3], the pest or weed control at 17.5 g/ha was 10%. For the same compound, in series [4], the pest or weed control at 17.5 g/ha came to 80%.

For `COc1c(Cl)ccc(-c2nc(C(=O)OCc3ccc(C#N)cc3)c(Cl)c(N)c2F)c1F` [Compound 4], the melting point stood at 151 °C. The pest or weed control at 8.75 g/ha in series [1] was found to be 80%. The pest or weed control at 8.75 g/ha in series [2] is 80%. Also, the pest or weed control at 17.5 g/ha in series [3] turned out to be 95%. The pest or weed control at 17.5 g/ha in series [4] was found to be 95%.

Turning to `COc1c(Cl)ccc(-c2nc(C(=O)OCc3ccc4ccccc4c3)c(Cl)c(N)c2F)c1F` [Compound 28], the melting point is 142 to 143 °C. The pest or weed control at 8.75 g/ha in series [1] worked out at 100%. For the same compound, the pest or weed control at 8.75 g/ha in series [2] came to 100%. In series [3], the pest or weed control at 17.5 g/ha turned out to be 10%. Further, the pest or weed control at 17.5 g/ha in series [4] came out at 50%.

In the case of `COc1ccc(COC(=O)c2nc(-c3ccc(Cl)c(OC)c3F)c(F)c(N)c2Cl)cc1` [Compound 5], the melting point lay in the range of 183 to 184 °C.

As for `COc1c(Cl)ccc(-c2nc(C(=O)OCc3cccc(C)c3)c(Cl)c(N)c2F)c1F` [Compound 11], the melting point was found to be 150 °C. Also, the pest or weed control at 8.75 g/ha in series [1] was 99%. For the same compound, the pest or weed control at 8.75 g/ha in series [2] came out at 97%. Further, in series [3], the pest or weed control at 17.5 g/ha turned out to be 97%. For the same compound, in series [4], the pest or weed control at 17.5 g/ha was 99%.

Compound `COc1c(Cl)ccc(-c2nc(C(=O)OCc3ccc(C(F)(F)F)cc3)c(Cl)c(N)c2F)c1F` [Compound 6] returned a melting point of 118 to 119 °C. Further, in series [1], the pest or weed control at 8.75 g/ha turned out to be 100%. The pest or weed control at 8.75 g/ha in series [2] was found to be 100%. For the same compound, the pest or weed control at 17.5 g/ha in series [3] came to 60%. For the same compound, the pest or weed control at 17.5 g/ha in series [4] was 95%.

For `COc1c(Cl)ccc(-c2nc(C(=O)OC(C)c3ccccc3)c(Cl)c(N)c2F)c1F` (stereo not drawn) [Compound 14], the pest or weed control at 8.75 g/ha came to 95% in series [1] and 50% in series [2]. Also, the pest or weed control at 17.5 g/ha turned out to be 10% in series [3] and 70% in series [4].

In turn, `COc1ccccc1COC(=O)c1nc(-c2ccc(Cl)c(OC)c2F)c(F)c(N)c1Cl` [Compound 10] registered a melting point of 135 to 136 °C. Further, the pest or weed control at 8.75 g/ha in series [1] is 100%. For the same compound, the pest or weed control at 8.75 g/ha in series [2] stood at 91%. In addition, in series [3], the pest or weed control at 17.5 g/ha was 70%. In series [4], the pest or weed control at 17.5 g/ha turned out to be 100%.

The compound `COc1c(Cl)ccc(-c2nc(C(=O)OCc3ccccc3Cl)c(Cl)c(N)c2F)c1F` [Compound 9] showed a melting point of 183 to 184 °C. Also, the pest or weed control at 17.5 g/ha in series [3] came to 100%. The pest or weed control at 17.5 g/ha in series [4] stood at 100%.

In the case of `COC(=O)c1ccccc1COC(=O)c1nc(-c2ccc(Cl)c(OC)c2F)c(F)c(N)c1Cl` [Compound 32], the melting point came to 161 °C. Moreover, in series [3], the pest or weed control at 17.5 g/ha was determined as 60%. Further, the pest or weed control at 17.5 g/ha in series [4] was 100%.

Regarding `COc1c(Cl)ccc(-c2cc(N)c(Cl)c(C(=O)OCCc3ccccc3)n2)c1F` [Compound 37], the pest or weed control at 35 g/ha in series [3] stood at 98%.

`COc1c(Cl)ccc(-c2nc(C(=O)OCc3cccc(Cl)c3)c(Cl)c(N)c2F)c1F` [Compound 12] gave a melting point of 147 to 148 °C. In addition, in series [3], the pest or weed control at 17.5 g/ha came out at 100%. Besides, the pest or weed control at 17.5 g/ha in series [4] is 100%.

Compound `COc1c(Cl)ccc(-c2cc(N)c(Cl)c(C(=O)OCc3ccc(Cl)cc3)n2)c1F` [Compound 18] registered a melting point of 100 to 108 °C. Also, the pest or weed control at 35 g/ha in series [3] worked out at 100%.

In the case of `COc1c(Cl)ccc(-c2cc(N)c(Cl)c(C(=O)OC(C)c3ccccc3)n2)c1F` (stereo not drawn) [Compound 19], the melting point lay within 110 to 113 °C. The pest or weed control at 35 g/ha in series [3] came to 90%.
